# Patent US20260317320A1, “C5AR1 ANTAGONISTS AND USES THEREOF” (Vanqua Bio, Inc., priority 2022, published 2026)
# Molecular target: T1, complement C5a receptor 1 (C5aR1) (Homo sapiens, UniProt P21730)
# T1 construct: β-galactosidase fragment (PathHunter enzyme complementation); host or cells: CHO-K1 (PathHunter CHO-K1 C5aR1 β-arrestin cell line)
# T1 sequence (P21730 1-350): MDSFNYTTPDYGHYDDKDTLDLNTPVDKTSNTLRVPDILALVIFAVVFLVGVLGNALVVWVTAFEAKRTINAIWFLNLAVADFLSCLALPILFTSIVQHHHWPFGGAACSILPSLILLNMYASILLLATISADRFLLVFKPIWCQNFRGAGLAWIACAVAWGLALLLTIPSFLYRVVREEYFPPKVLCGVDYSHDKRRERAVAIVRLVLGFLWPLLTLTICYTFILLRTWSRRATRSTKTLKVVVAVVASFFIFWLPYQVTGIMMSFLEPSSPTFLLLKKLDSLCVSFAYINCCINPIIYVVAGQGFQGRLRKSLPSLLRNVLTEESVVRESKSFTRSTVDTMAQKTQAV
# Experiment: β-arrestin recruitment via C5aR1 activation in live CHO-K1 cells (PathHunter), antagonist mode
# Format: cell-based
# Conditions: antagonist mode; recombinant hC5a (EC90) as competing natural agonist; live CHO-K1 cells; read-out: [Antagonist] B-arrestin2 recruitment: Average IC50
# Description: Exemplary compounds were evaluated for classical GPCR β-arrestin recruitment via complement C5a receptor 1 (C5aR1) activation in live CHO-K1 cells. This cell line expresses two fragments of the […] protein coupled to β-arrestin and C5aR1. Complementation of the two fragments allows for the assessment of both C5aR1 agonism and antagonism. Recombinant hC5a (EC90) was used as the competing natural agonist against disclosed compounds (more information on the expanded protocol and cell line can be found on the manufacturer's website: PathHunter® CHO-K1 C5aR1 β-arrestin cell line, DiscoverX, Catalog No. 93-0557C2). […] IC50 ranges: A: IC50≤500 nM; B: 500 nM<IC50≤5 uM; C: 5 uM<IC50≤100 uM; D: IC50>100 uM.
row,Compound,IC50
1,"Cc1cnc2cc([C@H]3CC[C@H](c4c(C)cccc4F)CC3)c(=O)n(Cc3ncccc3C(F)(F)F)c2n1 [121a, 7-(trans-4-(2-Fluoro-6-methylphenyl)cyclohexyl)-3-methyl-5-((3-(trifluoromethyl)pyridin-2-yl)methyl)pyrido[2,3-b]pyrazin-6(5H)-one]",< 500 nM
2,"Cc1cnc2cc([C@H]3CC[C@@H](c4c(C)cccc4F)CC3)c(=O)n(Cc3ncccc3C(F)(F)F)c2n1 [121b, 7-(cis-4-(2-Fluoro-6-methylphenyl)cyclohexyl)-3-methyl-5-((3-(trifluoromethyl)pyridin-2-yl)methyl)pyrido[2,3-b]pyrazin-6(5H)-one]",500 to 5000 nM
3,"Cc1cccc(F)c1N1CCC(c2cc3nccnc3n(Cc3ccccc3C(F)(F)F)c2=O)CC1 [compound 1, 7-(1-(2-Fluoro-6-methylphenyl)piperidin-4-yl)-5-(2-(trifluoromethyl)benzyl)pyrido[2,3-b]pyrazin-6(5H)-one]",< 500 nM
4,"Cc1cnc2cc(C3CCN(c4c(C)cccc4F)CC3)c(=O)n(Cc3ccccc3OC(F)F)c2n1 [compound 74, 5-(2-(Difluoromethoxy)benzyl)-7-(1-(2-fluoro-6-methylphenyl)piperidin-4-yl)-3-methylpyrido[2,3-b]pyrazin-6(5H)-one]",500 to 5000 nM
5,"Cc1cnc2c(C)c(C3CCN(c4c(C)cccc4F)CC3)c(=O)n(Cc3ncccc3C(F)(F)F)c2n1 [compound 75, 7-(1-(2-Fluoro-6-methylphenyl)piperidin-4-yl)-3,8-dimethyl-5-((3-(trifluoromethyl)pyridin-2-yl)methyl)pyrido[2,3-b]pyrazin-6(5H)-one]",500 to 5000 nM
6,"Cc1c(C2CCN(c3ccccc3C(F)(F)F)CC2)c(=O)n(Cc2nccnc2F)c2nccnc12 [compound 77, 5-((3-Fluoropyrazin-2-yl)methyl)-8-methyl-7-(1-(2-(trifluoromethyl)phenyl)piperidin-4-yl)pyrido[2,3-b]pyrazin-6(5H)-one]",500 to 5000 nM
7,"Cc1cnc2cc(C3CCN(c4c(C)cccc4F)CC3)c(=O)n(Cc3ccccc3OC(F)(F)F)c2n1 [compound 78, 7-(1-(2-Fluoro-6-methylphenyl)piperidin-4-yl)-3-methyl-5-(2-(trifluoromethoxy)benzyl)pyrido[2,3-b]pyrazin-6(5H)-one]",500 to 5000 nM
8,"COc1ccnc(F)c1N1CCC(c2cc3nccnc3n(Cc3ncccc3C(F)(F)F)c2=O)CC1 [compound 79, 7-(1-(2-Fluoro-4-methoxypyridin-3-yl)piperidin-4-yl)-5-((3-(trifluoromethyl)pyridin-2-yl)methyl)pyrido[2,3-b]pyrazin-6(5H)-one]",500 to 5000 nM
9,"Cc1ncc2cc(C3CCN(c4c(C)cccc4F)CC3)c(=O)n(Cc3ncccc3C(F)(F)F)c2n1 [compound 81, 6-(1-(2-fluoro-6-methylphenyl)piperidin-4-yl)-2-methyl-8-((3-(trifluoromethyl)pyridin-2-yl)methyl)pyrido[2,3-d]pyrimidin-7(8H)-one]",< 500 nM
10,"Cc1c(C2CCN(c3ccccc3C(F)(F)F)CC2)c(=O)n(Cc2ncccc2F)c2nccnc12 [compound 83, 5-((3-Fluoropyridin-2-yl)methyl)-8-methyl-7-(1-(2-(trifluoromethyl)phenyl)piperidin-4-yl)pyrido[2,3-b]pyrazin-6(5H)-one]",< 500 nM
11,"Cc1cccc(F)c1N1CCC(c2cc3ncncc3n(Cc3ncccc3C(F)(F)F)c2=O)CC1 [compound 84, 7-(1-(2-Fluoro-6-methylphenyl)piperidin-4-yl)-5-((3-(trifluoromethyl)pyridin-2-yl)methyl)pyrido[3,2-d]pyrimidin-6(5H)-one]",> 100000 nM
12,"COc1ccnc(F)c1N1CCC(c2cc3ncc(C)nc3n(Cc3ncccc3C(F)(F)F)c2=O)CC1 [compound 85, 7-(1-(2-Fluoro-4-methoxypyridin-3-yl)piperidin-4-yl)-3-methyl-5-((3-(trifluoromethyl)pyridin-2-yl)methyl)pyrido[2,3-b]pyrazin-6(5H)-one]",< 500 nM
13,"Cc1cnc2cc(C3CCN(c4c(C)cccc4F)CC3)c(=O)n(Cc3ncccc3C(F)(F)F)c2c1 [compound 90, 3-(1-(2-Fluoro-6-methylphenyl)piperidin-4-yl)-7-methyl-1-((3-(trifluoromethyl)pyridin-2-yl)methyl)-1,5-naphthyridin-2(1H)-one]",5000 to 100000 nM
14,"Cc1cccc(F)c1C1CCN(c2cc3nccnc3n(Cc3ncccc3C(F)(F)F)c2=O)CC1 [compound 91, 7-(4-(2-fluoro-6-methylphenyl)piperidin-1-yl)-5-((3-(trifluoromethyl)pyridin-2-yl)methyl) pyrido[2,3-b]pyrazin-6(5H)-one]",500 to 5000 nM
15,"Cc1ccc2cc(C3CCN(c4c(C)cccc4F)CC3)c(=O)n(Cc3ncccc3C(F)(F)F)c2n1 [compound 94, 3-(1-(2-Fluoro-6-methylphenyl)piperidin-4-yl)-7-methyl-1-((3-(trifluoromethyl)pyridin-2-yl)methyl)-1,8-naphthyridin-2(1H)-one]",< 500 nM

# Next, values leading:
row,IC50,Compound
1,500 to 5000 nM,"Cc1cnc2cc([C@H]3CC[C@@H](c4c(C)cccc4F)CC3)c(=O)n(Cc3nccnc3C(F)(F)F)c2n1 [99a, 7-(cis-4-(2-Fluoro-6-methylphenyl)cyclohexyl)-3-methyl-5-((3-(trifluoromethyl)pyrazin-2-yl)methyl)pyrido[2,3-b]pyrazin-6(5H)-one]"
2,< 500 nM,"Cc1cnc2cc([C@H]3CC[C@H](c4c(C)cccc4F)CC3)c(=O)n(Cc3nccnc3C(F)(F)F)c2n1 [99b, 7-(trans-4-(2-Fluoro-6-methylphenyl)cyclohexyl)-3-methyl-5-((3-(trifluoromethyl)pyrazin-2-yl)methyl)pyrido[2,3-b]pyrazin-6(5H)-one]"
3,500 to 5000 nM,"COc1cnc2cc(C3CCN(c4c(C)cccc4F)CC3)c(=O)n(Cc3nccnc3C(F)(F)F)c2n1 [compound 76, 7-(1-(2-Fluoro-6-methylphenyl)piperidin-4-yl)-3-methoxy-5-((3-(trifluoromethyl)pyrazin-2-yl)methyl)pyrido[2,3-b]pyrazin-6(5H)-one]"
4,500 to 5000 nM,"COc1ccnc(F)c1N1CCC(c2cc3ncc(C)nc3n(Cc3nccnc3C(F)(F)F)c2=O)CC1 [compound 80, 7-(1-(2-Fluoro-4-methoxypyridin-3-yl)piperidin-4-yl)-3-methyl-5-((3-(trifluoromethyl)pyrazin-2-yl)methyl)pyrido[2,3-b]pyrazin-6(5H)-one]"
5,> 100000 nM,"Cc1cccc(F)c1N1CCC(c2cc3ncncc3n(Cc3nccnc3C(F)(F)F)c2=O)CC1 [compound 82, 7-(1-(2-Fluoro-6-methylphenyl)piperidin-4-yl)-5-((3-(trifluoromethyl)pyrazin-2-yl)methyl)pyrido[3,2-d]pyrimidin-6(5H)-one]"
6,< 500 nM,"Cc1cnc2cc(N3CCN(c4c(C)cccc4F)CC3)c(=O)n(Cc3nccnc3C(F)(F)F)c2n1 [compound 92, 7-(4-(2-Fluoro-6-methylphenyl)piperazin-1-yl)-3-methyl-5-((3-(trifluoromethyl)pyrazin-2-yl)methyl)pyrido[2,3-b]pyrazin-6(5H)-one]"
7,> 100000 nM,"COc1ncnc2cc(C3CCN(c4c(C)cccc4F)CC3)c(=O)n(Cc3nccnc3C(F)(F)F)c12 [compound 93, 7-(1-(2-Fluoro-6-methylphenyl)piperidin-4-yl)-4-methoxy-5-((3-(trifluoromethyl)pyrazin-2-yl)methyl)pyrido[3,2-d]pyrimidin-6(5H)-one]"
